Data as given in patent US3974187A, “Synthetic analogs having the activity of naturally occurring forms of coenzyme Q” (priority 1975, dated 1976).

Experiments:
[1] = test system: succinoxidase system of beef heart mitochondria; experiment: CoQ activity: restoring succinoxidase activity of pentane-extracted beef heart mitochondria (manometric); format: biochemical; set-up: key to CoQ10 Act. Index: activity index relative to CoQ10 standard; conditions: for Activation at 400 nMoles %: 400 nmoles of analog, relative to the response to 400 nmoles CoQ10; for Maximum Activation: 400 nm of analog per flask, percent of the response to CoQ4; for CoQ10 Act. Index: calculated from relative effectiveness, activity in terms of that of CoQ10; for Estimated nMoles Required for 50% Activation: level required to reinstate approximately 50% of maximum succinoxidase activity, 0.65-0.85 mg PEBHM; for Relative Effectiveness: molar amounts of analog and CoQ4 required to restore the same level of succinoxidase to PEBHM, relative to CoQ4; for effectiveness / utilization in the succinoxidase mitochondrial system: interpretation of Table II
Experimental: The CoQ activity of each analog was assessed by examining the ability of the analog to stimulate the succinoxidase activity of beef-heart mitochondria (BHM) from which the naturally occurring CoQ had been removed by pentane extraction. (Table I) Beef heart mitochondria were prepared by the method of Smith (Methods Enzymol., 10, 81 (1967). The pentane extraction was conducted as described by Szarkowska (Arch. Biochem. Biophys., 113, 519 (1966); PEBHM was frozen and used within 10 days of preparation, since pentane extraction decreases the stability of BHM. Succinoxidase activity was determined manometercally, using a Gilson differential respirometer (Iwamoto, Y., Hansen, I. L., Porter, T. H., and Folkers, K., Biochem. Biophys. Res. Comm., 58, 633 (1974), and is reported as […] of oxygen per minute per milligram of protein. A commercial soybean phospholipid preparation (Asolectin), dispersed by sonication (Fleischer, S. and Fleischer, B., Methods Enzymol., 10, 421 (1967), was used to provide phospholipid micelles, and test substances were added as solutions in ethanol. Within Table I are listed the CoQ activities of the analogs and selected reference compounds. The CoQ10 Activity Index is a measure of the effectiveness of the analogs, relative to the standard, in stimulating a submaximal response of succinoxidase activity. Specific activity of the succinoxidase system in response to stimulation by exogenous CoQ10 is given in footnote a of the Table. The quantity of analog to be added was chosen to provide a level of succinoxidase activity corresponding to the nearly linear portion of the activity: dose curve, in which succinoxidase activity stimulated is approximately proportional to the level of analog used. The second column lists the nanomolar quantity of analog required to provide a stimulation of about half of the maximum response. The relative response of the succinoxidase system to 400 nmol of each analog is listed in the third column of the Table. This level of analog is sufficient to insure significant excess over the stoichiometric amount, and maximum response to CoQ4 is obtained at one-tenth to one-twentieth of this dose level. The response to 400 nmol of CoQ10 is lower than is the response to other components listed. The very long side-chain of CoQ10, the natural coenzyme, may hinder the transport of exogenous CoQ10 to the active site.

[2] = test system: oxidative phosphorylation at site I (ETPH particles); experiment: Assay of CoQ and analogs for oxidative phosphorylation at site I with ETPH particles; format: biochemical; set-up: Δ NADH / Δ G6P: unit not given here; conditions: for biochemical effectiveness in the site I assay system: compared with CoQ1
Experimental: Assays were performed with 200 μg of ETPH particles as described by
Schatz and Racker (J. Biol. Chem., 241, 1429 (1966)). The concentration o
the CoQ compounds was 0.12 mM. Rotenone was added at 2 μM

[3] = target: complex III (Bos taurus, UniProt P00157+P13272); experiment: Reduction of cytochrome c by reduced CoQ and analogs catalyzed by complex III; format: biochemical; conditions: for response of complex III system to the reduced analog as substrate: after reduction and extraction
Experimental: Reduction of cytochrome c was measured at 550-540 nm. The reaction mixtur
contained in 1.0 ml: […] KP1, pH 7.5; 0.05 mM EDTA; 8 μM
cytochrome c1; 10 μM reduced CoQ or analog and 2 μg complex
III. When indicated, antimycin A was added to the assay medium at 1
μg/ml. An extinction coefficient of 19 mM^-^1 was used for […]

[4] = Solubility in water; format: physicochemical; conditions: in the site I assay system
[5] = test system: periodontal disease; conditions: Matsummura et al. 1973; cited from earlier work
[6] = test system: nutritionally deficient children who were anemic; conditions: Majaj and Folkers 1968; cited from earlier work
[7] = test system: nutritionally dystrophic rabbit; conditions: Farley et al. 1968; intravenous administration; cited from earlier work
[8] = human; cited from earlier work
[9] = Chemical stability; format: physicochemical; conditions: compared with CoQ1 and CoQ2
[10] = literature / general knowledge; cited from earlier work
[11] = CoQ or analog 0.12 nM (footnote 0.12 mM)

SMILES	Activation at 400 nMoles % [1] [%]	Maximum Activation [1] [%]	CoQ10 Act. Index [1]	Estimated nMoles Required for 50% Activation [1] [nmol]	Relative Effectiveness [1] [%]	response of complex III system to the reduced analog as substrate [3]	solubility in water [4]	biochemical effectiveness in the site I assay system [2]	hematological activity [6]	effectiveness / utilization in the succinoxidase mitochondrial system [1]	therapeutic activity, saving the life of the dying dystrophic rabbit [7]	also measured
COC1=C(OC)C(=O)C(C/C=C(\C)CC/C=C(\C)CC/C=C(\C)CC/C=C(\C)CC/C=C(\C)CC/C=C(\C)CC/C=C(\C)CC/C=C(\C)CC/C=C(\C)CCC=C(C)C)=C(C)C1=O [CoQ10, coenzyme Q10, reference compound]	100	78	1.0	41.7	4.8		too insoluble		showed hematological activity	poorly utilized	failed to elicit therapeutic activity	Specific Activity of the enzyme system ([1]; 10 nmoles CoQ10/flask): 0.160 μatm O2 /mg protein min; Specific Activity of the enzyme system ([1]; 20 nmoles CoQ10/flask): 0.248 μatm O2 /mg protein min; Specific Activity of the enzyme system ([1]; 30 nmoles CoQ10/flask): 0.298 μatm O2 /mg protein min; Specific Activity of the enzyme system ([1]; 40 nmoles CoQ10/flask): 0.344 μatm O2 /mg protein min; Specific Activity of the enzyme system ([1]; 100 nmoles CoQ10/flask): 0.488 μatm O2 /mg protein min; Activation at 3.46 nMoles ([1]; 3.46 (nMoles) CoQ10): no activation; oral absorption [8]: inefficient
CCCCCCCCCCC1=C(C)C(=O)C(OC)=C(OC)C1=O [Decyl, 2,3-Dimethoxy-5-methyl-6-decyl-1,4-benzoquinone]	123	96	11.7	3.6	56	excellent substrates		as biochemically effective as CoQ1		effective		P/NADH Ratio [2, 11]: 0.46; Δ G6P [2, 11]: 0.039; Δ NADH [2, 11]: 0.085; μmoles NADH /min/mg ([2]; CoQ or analog 0.12 nM (footnote 0.12 mM), 200 μg ETPH particles, no rotenone): 0.52 μmoles NADH /min/mg; μmoles NADH min/mg +Rotenone ([2]; CoQ or analog 0.12 nM (footnote 0.12 mM), rotenone 2 μM): 0 μmoles NADH min/mg; % Inhibition by Rotenone ([2]; rotenone 2 μM, CoQ or analog 0.12 nM (footnote 0.12 mM)): 100%; nMoles Cytochrome c Reduced/min ([3]; 10 μM reduced CoQ or analog, 2 μg complex III, 8 μM cytochrome c): 29.0 nmol/min; Non-enzymatic Rate of Cytochrome c Reduction ([3]; 10 μM reduced CoQ or analog, blank without complex III): 0.2 nmol/min; % Inhibition by Antimycin A ([3]; antimycin A 1 μg/ml): 98%; chemical stability ([9]; listed as 6-n-decyl): superior to CoQ1 and CoQ2 in chemical stability; chemical stability ([9]; listed as DB): apparent greater stability
COC1=C(OC)C(=O)C(C/C=C(\C)CC/C=C(\C)CC/C=C(\C)CC/C=C(\C)CC/C=C(\C)CCC=C(C)C)=C(C)C1=O [CoQ6, reference compound]							somewhat more soluble	not adequate				
COC1=C(OC)C(=O)C(C/C=C(\C)CC/C=C(\C)CCC=C(C)C)=C(C)C1=O [CoQ3, coenzyme Q3]											did not save the life of the dying dystrophic rabbit	chemical stability of isoprenoid quinones [10]: relative chemical instability

More lines, main results first:

Activation at 400 nMoles % [1] [%]	Maximum Activation [1] [%]	CoQ10 Act. Index [1]	Estimated nMoles Required for 50% Activation [1] [nmol]	Relative Effectiveness [1] [%]	response of complex III system to the reduced analog as substrate [3]	solubility in water [4]	SMILES	biochemical effectiveness in the site I assay system [2]	hematological activity [6]	effectiveness / utilization in the succinoxidase mitochondrial system [1]	therapeutic activity, saving the life of the dying dystrophic rabbit [7]	also measured
121	94	4.4	9.5	21	virtually unresponsive	lower solubility in water	CCCCCCCCCCCCCCCC1=C(C)C(=O)C(OC)=C(OC)C1=O [Pentadecyl, 2,3-Dimethoxy-5-methyl-6-pentadecyl-1,4-benzoquinone]	not suitable or as effective				inhibition of complex III system [3]: no inhibition
121	95	2.2	19.4	10.3			COC1=C(OC)C(=O)C(C/C=C(\C)CCCC(C)CCCC(C)CCCC(C)C)=C(C)C1=O (stereo not shown) [H6 CoQ4, hexahydrocoenzyme Q4, reference compound]		showed hematological activity			treatment of periodontal disease [5]: enhanced treatment of periodontal disease
